Reference: article PMC6279743, “A small molecule ApoE4-targeted therapeutic candidate that normalizes sirtuin 1 levels and improves cognition in an Alzheimer’s disease mouse model” (Scientific Reports, 2018)
Where two headings read alike, the source gives them in different places.

How the values were obtained:
patients = conditions: cited from earlier work
[1] = Pharmacokinetics after oral delivery in mice; assay type: in vivo; conditions: oral 10 mg/kg
Protocol: All in vivo experiments described were carried out in strict accordance with good animal practice according to NIH recommendations. All procedures for animal use were approved by the Animal Research Committee (ARC) at UCLA and under an approved ARC protocol. Pharmacokinetic (PK) analysis[68]–[70] consisted of oral delivery of compounds (10 mg/Kg) to individual mice followed by euthanasia at 1, 2, 4, 6, and 8 hours post-dose by ketamine/xylazine over-anesthesia, blood collection by cardiac puncture, and transcardial saline perfusion. Whole blood was centrifuged at 5000 rpm for 10 min. in a 5 °C centrifuge to isolate plasma and the plasma stored at −20 °C before analysis. Whole brains were collected, dissected down the midline, snap frozen on dry ice, and stored at −80 °C before analysis. The levels of the compounds in both plasma and brain tissue were determined by a quantitative LC/MS/MS methodology at Integrated Analytical Solutions (IAS, Berkeley, CA). Plasma samples were precipitated with an acetonitrile: methanol (1:1) cocktail containing an internal standard. Brain samples were homogenized directly in ethyl acetate by the liquid-liquid method. The resulting supernatant was evaporated to dryness and subjected to LC/MS/MS analysis. The Tmax, Cmax, brain-to-plasma ratios and brain levels were then calculated using PK Solutions software (SummitPK).

[2] = Pharmacokinetics after subcutaneous (SQ) injection in mice; assay type: in vivo

**Q.** For `CC(N)C(=O)OC(C)(C)Cc1ccc(Cl)cc1` (stereo not drawn) [A03, alaproclate], which “Liver function in Phase 1 trial for depression” value (patients; human) is on record?
**A.** The value was “some liver function changes were seen”.

**Q.** And the “Toxicity in second clinical study” value (patients; human)?
**A.** Its value is “no toxicity up to 200 mg BID”.

**Q.** And the “Global scores in moderate to advanced AD patients” value (patients; small clinical studies)?
**A.** The value was “some improvements in global scores”.

**Q.** What about the Tmax ([1]; mouse, brain, n = 1 per time point) of the same molecule?
**A.** Its Tmax is 1 h.

**Q.** What about the AUC ([1]; mouse, plasma, 1-8 hours) of the same molecule?
**A.** The AUC was 266 ng·h/mL.

**Q.** And the AUC brain ([1]; 1-8 hours)?
**A.** The AUC brain was 1336 ng·h/g.

**Q.** And the “factor by which brain levels after SQ exceed those after oral delivery” value ([2]; 10 mg/Kg SQ vs 10 mg/Kg oral)?
**A.** The value was 4 to 5.

**Q.** What about the AUC plasma ([2]; mice, SQ 10 mg/kg, unit as printed in Fig. 4d legend) of the same molecule?
**A.** Its AUC plasma is 1520 ng·h/mL.

**Q.** And the Tmax ([2]; mouse, brain, sc, mice, SQ 10 mg/kg, n = 1)?
**A.** The Tmax was 2 h.

**Q.** What about the Cmax ([2]; mouse, brain, sc, mice, SQ 10 mg/kg, n = 1, read-out: Cmax in brain) of the same molecule?
**A.** Its Cmax is roughly 2600 ng/g.

**Q.** What about the Cmax ([2]; mouse, brain, subcutaneous, mice, SQ 10 mg/Kg, read-out: Cmax in brain as molar concentration) of the same molecule?
**A.** The Cmax was roughly 10 µM.

**Q.** What about the AUC ([2]; mouse, plasma, subcutaneous, mice, SQ 10 mg/kg) of the same molecule?
**A.** Its AUC is 1520 ng·h/mL.
